Like-named read-outs stand apart in the source and are kept apart here.
Experiment: Pharmacokinetics in rats after single iv, po or sc dose (plasma and brain)
Format: in vivo, Sprague-Dawley rats
Details: male, Sprague-Dawley; for Kp: brain/plasma, read-out: Ratio of Brain-to-Plasma AUC(0-∞); for Vd: read-out: Volume of Distribution at Steady State (Vdss); for bioavailability: read-out: Bioavailability (F); for AUC(0-inf): read-out: AUC(0-∞); for Cmax: read-out: Observed Cmax
Protocol: Sprague Dawley (SD) rats (138 adult males), and C57Bl/6 mice (140 adult males), were obtained (Hilltop Laboratories, Scottsdale, PA); 123 per species were used in the study and the remainder provided blank matrix. Animals were individually identified by tail markings and were acclimated to the study environment for 16-21 days prior to dose administration. Animals were individually housed in suspended wire caging, and were kept on a 12h/12h light/dark cycle except when interrupted for study procedures. Average room temperature was regulated in the range 18 to 29°C, average relative humidity of 30-70%, and an average daily airflow >10 fresh air changes/h. Animals were fed LabDiet^Ò Certified Rodent Diet 5002 Meal food ad libitum, except during fasting prior to dose administration, and had access to water ad libitum.
[…] […] The concentration of memantine for the same dose level administered to mice was 0.2 mg eq./mL, and the dose volume was 5 mL/kg. The concentration of memantine in the 10mg eq./kg po and sc solutions was 5 mg eq./mL and the dose volume was 2 mL/kg for both rats and mice.
Details of the dose administration, body weights, clinical observations, plasma and brain sample collection and preparation are not shown in this report but are available upon request. Blood (for preparation of plasma) and brain samples were collected at 0.08, 0.25, 0.5, 1, 2, 4, 8, and 24h post-dose.
Since all time points were terminal, mean memantine concentrations per time point were used to calculate the composite PK parameters by non-compartmental analysis using WinNonlin program, version 5.2 (Pharsight Corp., Mountain View, California). A model was selected based on the vascular (iv bolus) or extravascular (po or sc) routes of administration. For the iv route, plasma concentration at time zero was back extrapolated from the first two observed post dose plasma concentrations. For the po and sc routes, concentration at time zero was assumed to be zero. Plasma and tissue concentrations below the limit of quantitation were treated as absent samples for the purpose of calculating the mean plasma concentration values or for calculating PK parameters.
The area under the plasma concentration versus time curve (AUC) was calculated using the linear trapezoidal method (linear interpolation). When appropriate, the terminal elimination phase of the PK profile was estimated based on the best fit (r^2) using at least the last three observed concentrations. PK parameters describing the systemic exposure of memantine in plasma and brain were estimated from observed (rather than predicted) plasma/brain concentrations, the dosing regimen, the AUC, and the terminal elimination phase rate constant (kel) for each group. The portion of the AUC from the last measurable concentration to infinity was estimated from the equation Ct/kel, where Ct represents the last measurable concentration. The extrapolated portion of the AUC was used for the determination of AUC0-∞. The percent bioavailability (%F) was calculated by dividing the dose normalized extravascular plasma AUC0-∞ by the dose normalized iv plasma AUC0-∞ times 100. The bioavailability calculations assumed concentrations were in the linear range.
Concentrations of memantine in rat and mouse plasma and brain were determined using an LC-MS/MS assay developed at ABC Laboratories.

[1] = rat, brain, iv, 1.22 mg/kg, rat brain, IV 1.22 mg eq./kg
[2] = rat, brain, po, 1.22 mg/kg, rat brain, PO 1.22 mg eq./kg
[3] = rat, brain, po, 10 mg/kg, rat brain, PO 10.0 mg eq./kg
[4] = rat, brain, sc, 1 mg/kg, rat brain, SC 1.0 mg eq./kg
[5] = rat, brain, sc, 10 mg/kg, rat brain, SC 10.0 mg eq./kg

CC12CC3CC(C)(C1)CC(N)(C3)C2 [memantine]
AUC(0-t) (1 mg/kg, rat brain, SC 1.0 mg eq./kg): 48 µM·h
Tmax (1 mg/kg, rat brain, SC 1.0 mg eq./kg, read-out: Observed Tmax): 0.5 h
AUC(0-t) (1 mg/kg, rat plasma, SC 1.0 mg eq./kg): 1.62 µM·h
Tmax (1 mg/kg, rat plasma, SC 1.0 mg eq./kg, read-out: Observed Tmax): 0.25 h
AUC(0-t) (1.22 mg/kg, rat brain, IV 1.22 mg eq./kg): 43 µM·h
Tmax (1.22 mg/kg, rat brain, IV 1.22 mg eq./kg, read-out: Observed Tmax): 0.5 h
AUC(0-t) (1.22 mg/kg, rat brain, PO 1.22 mg eq./kg): 13.1 µM·h
Tmax (1.22 mg/kg, rat brain, PO 1.22 mg eq./kg, read-out: Observed Tmax): 2 h
AUC(0-t) (1.22 mg/kg, rat plasma, IV 1.22 mg eq./kg): 1.57 µM·h
MRT inf (1.22 mg/kg, rat plasma, IV 1.22 mg eq./kg, read-out: Mean Residency Time (MRT0-∞)): 2.08 h
AUC(0-t) (1.22 mg/kg, rat plasma, PO 1.22 mg eq./kg): 0.541 µM·h
Tmax (1.22 mg/kg, rat plasma, PO 1.22 mg eq./kg, read-out: Observed Tmax): 1 h
AUC(0-t) (10 mg/kg, rat brain, PO 10.0 mg eq./kg): 254 µM·h
Tmax (10 mg/kg, rat brain, PO 10.0 mg eq./kg, read-out: Observed Tmax): 2 h
AUC(0-t) (10 mg/kg, rat brain, SC 10.0 mg eq./kg): 441 µM·h
Tmax (10 mg/kg, rat brain, SC 10.0 mg eq./kg, read-out: Observed Tmax): 1 h
AUC(0-t) (10 mg/kg, rat plasma, PO 10.0 mg eq./kg): 11.2 µM·h
Tmax (10 mg/kg, rat plasma, PO 10.0 mg eq./kg, read-out: Observed Tmax): 0.5 h
AUC(0-t) (10 mg/kg, rat plasma, SC 10.0 mg eq./kg): 25.8 µM·h
Tmax (10 mg/kg, rat plasma, SC 10.0 mg eq./kg, read-out: Observed Tmax): 0.5 h
Kp (rat, IV 1.22 mg eq./kg): 29.1
Kp (rat, PO 1.22 mg eq./kg): 35.6
Kp (rat, PO 10.0 mg eq./kg): 22.5
Kp (rat, SC 1.0 mg eq./kg): 31.4
Kp (rat, SC 10.0 mg eq./kg): 17.1
clearance (plasma, 1.22 mg/kg, rat, IV 1.22 mg eq./kg, read-out: Plasma Clearance (CLp) (converted)): 69.2 mL/min/kg
Vd (plasma, 1.22 mg/kg, rat, IV 1.22 mg eq./kg): 8.62 L/kg
bioavailability (plasma, 1.22 mg/kg, rat, PO 1.22 mg eq./kg): 36.3%
bioavailability (plasma, 10 mg/kg, rat, PO 10.0 mg eq./kg): 84.9%
concentration at 24 h (plasma, oral, rat, dose 10 mg/kg, single dose in solution, read-out: C min): 0.03 µM
Tmax (plasma, po, rat, dose 1 mg/kg, cross-species summary, read-out: T max): 1 h
Vd (plasma, rat, IV 1.22 mg eq./kg): 8 to 9 L/kg
bioavailability (plasma, rat, PO 1.22 mg eq./kg): 36%
Tmax (plasma, rat, dose 10 mg/kg, cross-species summary, read-out: T max): 0.5 to 1 h
AUC(0-inf) [1]: 47.6 µM·h
half-life (rat, brain, iv, 1.22 mg/kg, rat brain, IV 1.22 mg eq./kg, read-out: Half-life (t½) (converted)): 2.28 h
Cmax [1]: 11 µM
half-life (rat, brain, oral, subcutaneous, summary for rats and mice, rat, read-out: brain elimination half-lives after extravascular administrations): 2.3 to 3.8 h
half-life (rat, brain, po, 1.22 mg/kg, rat brain, PO 1.22 mg eq./kg, estimated using the LOQ for the 24 hr concentration, large imprecision, read-out: Half-life (t½) (converted)): < 2.54 h
AUC(0-inf) [2]: 21.1 µM·h
Cmax [2]: 2.17 µM
AUC(0-inf) [3]: 256 µM·h
half-life (rat, brain, po, 10 mg/kg, rat brain, PO 10.0 mg eq./kg, read-out: Half-life (t½) (converted)): 3.7 h
Cmax [3]: 25.4 µM
AUC(0-inf) [4]: 53 µM·h
half-life (rat, brain, sc, 1 mg/kg, rat brain, SC 1.0 mg eq./kg, read-out: Half-life (t½) (converted)): 2.51 h
Cmax [4]: 10.6 µM
AUC(0-inf) [5]: 442 µM·h
half-life (rat, brain, sc, 10 mg/kg, rat brain, SC 10.0 mg eq./kg, read-out: Half-life (t½) (converted)): 2.65 h
Cmax [5]: 75.4 µM
half-life (rat, plasma, intravenous, oral, subcutaneous, rat, all dose routes and levels (plasma; b142 also brain), read-out: elimination half-life): 3 to 4 h

From PMC3269340, “Pharmacokinetics of memantine in rats and mice” (PLoS Currents, 2012)
